Entries after “also recorded” stand apart in the source; their conditions may differ.
Tests used:
[1] = Solubility of eriodictyol in solvents; assay type: physicochemical
[2] = Stability of eriodictyol in dimethyl isosorbide; assay type: physicochemical
Text: Thus, the compositions of the invention will also be stable for storage for at least 2 years under ambient conditions.

[3] = ABTS antioxidant assay (aqueous medium); assay type: biochemical; settings: for % Radical Inhibition: ABTS
Text: ABTS+ solution is generated as a free radical and used to measure relative ability of a compound to scavenge free radicals. Reduction of the absorbance at 734 nm was standardized to solvent control as an indication of ABTS+ scavenging.

[4] = DPPH antioxidant activity assay (organic medium); assay type: biochemical; settings: for % Radical Inhibition: DPPH
Text: The 2,2-diphenyl-1-picrylhydrazyl (DPPH) antioxidant assay is designed to evaluate the antioxidant activity of compositions comprising eriodictyol in an organic medium. […] In the presence of an antioxidant DPPH is reduced, resulting in the formation of a colorless solution. Reduction of absorbance at 517 nm is standardized to solvent control as an indication of DPPH scavenging.

[5] = target: T1, human neutrophil elastase (Homo sapiens, UniProt P08246); test: Elastase enzyme inhibition; assay type: biochemical
T1 sequence (P08246 30-267): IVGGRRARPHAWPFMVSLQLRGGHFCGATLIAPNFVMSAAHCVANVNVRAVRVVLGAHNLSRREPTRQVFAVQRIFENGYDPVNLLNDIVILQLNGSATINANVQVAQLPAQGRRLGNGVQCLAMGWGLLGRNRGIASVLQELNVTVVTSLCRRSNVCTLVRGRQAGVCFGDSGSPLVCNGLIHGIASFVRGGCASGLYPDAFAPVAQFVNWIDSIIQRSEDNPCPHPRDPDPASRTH
Description: The assay was conducted to evaluate the elastase enzyme inhibition activity of compositions comprising eriodictyol. Neutrophil infiltration and neutrophil elastase are both increased in the skin in response to UV stress. […] Therefore, inhibition of this enzyme, particularly in combination with antioxidant activity, is effective in delaying wrinkle development and aiding in maintaining skin integrity. This assay is measures release of 4-nitroaniline from an Me-Suc-[…] by human neutrophil elastase and can be quantified at 405 nm by comparing to solvent control.

[6] = Glycation inhibition assay; assay type: biochemical; settings: for % Enzyme Inhibition: glycation
Description: The assay was conducted to evaluate the glycation inhibition activity of compositions comprising eriodictyol. Nonenzymatic glycation can occur when glucose reacts with proteins, forming a Schiff base intermediate that subsequently undergoes Amadori rearrangement to form glycosylated proteins, when they react with skin proteins to form Advanced Glycation End products (AGE). AGE formation can result in loss of skin elasticity and impaired cellular function. The glycation inhibition ability of a compound is measured by change in fluorescence at excitation/emission of 360 nm/420 nm relative to solvent control.

[7] = system: ALDH1A3 (aldehyde dehydrogenase 1 family member A3); test: Gene modulation; assay type: cell-based
Text: (§1) Table 9, provided below, incorporates the gene modulation data for formulations comprising eriodictyol.

[8] = system: ATP12A (ATPase H+/K+ transporting non-gastric alpha2 subunit); test: Gene modulation; assay type: cell-based
Text: as §1

[9] = system: FN1 (fibronectin 1); test: Gene modulation; assay type: cell-based
Text: as §1

[10] = system: FST (follistatin); test: Gene modulation; assay type: cell-based
Text: as §1

[11] = system: IL23A (Interleukin 23); test: Gene modulation; assay type: cell-based
Text: as §1

[12] = system: IL24 (Interleukin 24); test: Gene modulation; assay type: cell-based
Text: as §1

[13] = system: IL6 (Interleukin 6); test: Gene modulation; assay type: cell-based
Text: as §1

[14] = system: KCTD4 (potassium channel tetramerization domain containing 4); test: Gene modulation; assay type: cell-based
Text: as §1

[15] = system: MKI67 (marker of proliferation Ki-67); test: Gene modulation; assay type: cell-based
Text: as §1

[16] = system: MMP1 (matrix metallopeptidase 1); test: Gene modulation; assay type: cell-based
Text: as §1

[17] = system: MMP10 (matrix metallopeptidase 10); test: Gene modulation; assay type: cell-based
Text: as §1

[18] = system: MMP3 (Matrix Metallopeptidase 3); test: Gene modulation; assay type: cell-based
Text: as §1

[19] = system: MMP9 (Matrix Metallopeptidase 9); test: Gene modulation; assay type: cell-based
Text: as §1

[20] = system: PPFIA4 (PTPRF interacting protein alpha 4); test: Gene modulation; assay type: cell-based
Text: as §1

[21] = system: SLC13A5 (Solute carrier family 13 member 5); test: Gene modulation; assay type: cell-based
Text: as §1

[22] = system: TFPI2 (tissue factor pathway inhibitor 2); test: Gene modulation; assay type: cell-based
Text: as §1

[23] = system: THBS1 (thrombospondin 1); test: Gene modulation; assay type: cell-based
Text: as §1

[24] = system: TNF (Tumor Necrosis Factor); test: Gene modulation; assay type: cell-based
Text: as §1

[25] = system: TOP2A (DNA topoisomerase II alpha); test: Gene modulation; assay type: cell-based
Text: as §1

[26] = system: macrophage cells; settings: cited from earlier work
[27] = system: ICR mice; settings: mouse skin; Park et al. 2013; cited from earlier work
[28] = target: TRPV1 receptors (Homo sapiens, UniProt Q8NER1); settings: acting on TRPV1 receptors; Deng et al. 2020; cited from earlier work
TRPV1 receptors, sequence (Q8NER1 whole entry): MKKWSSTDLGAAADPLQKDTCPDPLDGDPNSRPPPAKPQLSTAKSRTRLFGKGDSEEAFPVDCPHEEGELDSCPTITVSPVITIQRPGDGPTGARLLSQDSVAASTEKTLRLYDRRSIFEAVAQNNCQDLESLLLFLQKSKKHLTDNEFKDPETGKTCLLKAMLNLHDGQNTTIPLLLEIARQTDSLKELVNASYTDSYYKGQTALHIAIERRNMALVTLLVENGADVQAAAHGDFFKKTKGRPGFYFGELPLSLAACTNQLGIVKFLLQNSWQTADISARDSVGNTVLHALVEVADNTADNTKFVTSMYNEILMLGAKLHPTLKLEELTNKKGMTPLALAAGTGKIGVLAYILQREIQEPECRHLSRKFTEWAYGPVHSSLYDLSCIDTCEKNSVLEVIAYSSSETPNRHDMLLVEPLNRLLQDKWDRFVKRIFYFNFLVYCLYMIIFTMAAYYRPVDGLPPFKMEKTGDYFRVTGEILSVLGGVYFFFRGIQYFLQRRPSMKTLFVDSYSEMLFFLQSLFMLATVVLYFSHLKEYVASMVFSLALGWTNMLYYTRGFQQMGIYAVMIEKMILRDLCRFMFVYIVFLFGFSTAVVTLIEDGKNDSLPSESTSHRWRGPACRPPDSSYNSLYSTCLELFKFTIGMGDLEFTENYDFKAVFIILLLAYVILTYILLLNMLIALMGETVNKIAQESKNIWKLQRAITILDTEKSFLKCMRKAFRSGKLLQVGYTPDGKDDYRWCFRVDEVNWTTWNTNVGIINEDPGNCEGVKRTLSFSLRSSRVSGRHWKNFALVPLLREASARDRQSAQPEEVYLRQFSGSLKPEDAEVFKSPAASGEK

[29] = system: Nrf2/HO-1 pathway; settings: mice, acting on the Nrf2/HO-1 pathway; Li et al. 2022; cited from earlier work
[30] = system: melanoma cells; settings: cited from earlier work
[31] = target: tyrosinase (Mus musculus, UniProt P11344); settings: cited from earlier work
tyrosinase, sequence (P11344 19-533): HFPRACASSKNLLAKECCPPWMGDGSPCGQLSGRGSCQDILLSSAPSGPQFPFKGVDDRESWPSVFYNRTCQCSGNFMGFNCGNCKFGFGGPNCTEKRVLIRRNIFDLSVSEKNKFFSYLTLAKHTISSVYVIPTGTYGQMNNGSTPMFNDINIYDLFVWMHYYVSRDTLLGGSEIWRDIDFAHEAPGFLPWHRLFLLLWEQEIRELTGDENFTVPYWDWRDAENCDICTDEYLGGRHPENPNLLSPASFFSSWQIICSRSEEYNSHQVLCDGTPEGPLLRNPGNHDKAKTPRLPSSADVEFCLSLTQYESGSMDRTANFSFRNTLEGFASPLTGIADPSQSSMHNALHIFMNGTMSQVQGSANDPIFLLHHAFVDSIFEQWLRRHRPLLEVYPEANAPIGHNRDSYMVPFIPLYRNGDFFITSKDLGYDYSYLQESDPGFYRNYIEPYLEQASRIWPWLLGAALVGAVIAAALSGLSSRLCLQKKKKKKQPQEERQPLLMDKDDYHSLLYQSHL

[32] = system: Keratinocytes; settings: skin; cited from earlier work

O=C1C[C@@H](c2ccc(O)c(O)c2)Oc2cc(O)cc(O)c21 [eriodictyol]
Solubility (% w/w) ([1]; in Caprylic/Capric Triglyceride): only minimally soluble; also recorded: Not soluble
Solubility (% w/w) ([1]; in Helianthus Annuus (Sunflower) Seed Oil): insoluble; also recorded: Not soluble
Solubility (% w/w) ([1]; in Pentylene Glycol): only minimally soluble; also recorded: Not soluble
Solubility ([1]; in oil): poorly soluble or insoluble
Solubility ([1]; in water): poorly soluble or insoluble
30 day % remaining ([2]; 4 C.): 104.66%
90 day % remaining ([2]; 4 C.): 97.15%
30 day % remaining ([2]; 25 C.): 100.78%
90 day % remaining ([2]; 25 C.): 91.72%
180 day % remaining ([2]; 25 C.): 90.30%
30 day % remaining ([2]; 40 C.): 93.53%
90 day % remaining ([2]; 40 C.): 98.06%
30 day % remaining ([2]; 50 C.): 95.73%
% Radical Inhibition ([3]; eriodictyol 0.00016 % w/w): 11.00%
% Radical Inhibition ([3]; eriodictyol 0.0008 % w/w): 58.72%
% Radical Inhibition ([3]; eriodictyol 0.004 % w/w): 92.97%
IC50 antioxidant activity ([3]; aqueous solvent system, calculated): 0.00062 % w/w
Lowest concentration demonstrating antioxidant activity ([3]; aqueous systems): 0.00016 % w/w
% Radical Inhibition ([4]; eriodictyol 0.00007 % w/w): 21.22%
% Radical Inhibition ([4]; eriodictyol 0.00046 % w/w): 81.45%
% Radical Inhibition ([4]; eriodictyol 0.00278 % w/w): 81.95%
IC50 antioxidant activity ([4]; organic solvent system, calculated): 0.0002 % w/w
Lowest concentration demonstrating antioxidant activity ([4]; organic solvent systems): 0.00007 % w/w
Lowest concentration inhibiting elastase enzyme activity [5]: 0.008 % w/w
IC50 elastase enzyme inhibition ([5]; calculated): 0.107 % w/w
inhibition at 0.008 % strength ([5]; elastase, eriodictyol 0.008 % w/w): 17.6%
inhibition at 0.04 % strength ([5]; elastase, eriodictyol 0.04 % w/w): 23.1%
inhibition at 0.2 % strength ([5]; elastase, eriodictyol 0.2 % w/w): 58.1%
Lowest concentration inhibiting glycation [6]: 0.002 % w/w
IC50 glycation inhibition ([6]; calculated): 0.0088 % w/w
% Enzyme Inhibition ([6]; eriodictyol 0.002 % w/w): 38.43%
% Enzyme Inhibition ([6]; eriodictyol 0.007 % w/w): 86.18%
% Enzyme Inhibition ([6]; eriodictyol 0.022 % w/w): 90.26%
Treatment (gene expression level) ([7]; ALDH1A3): 168.0
Fold Change ([7]; ALDH1A3, treatment vs control): −9.8
Treatment (gene expression level) [8]: 76.4
Fold Change ([8]; treatment vs control): −11.3
Treatment (gene expression level) ([9]; FN1): 146.9
Fold Change ([9]; FN1, treatment vs control): −12.1
Treatment (gene expression level) [10]: 96.4
Fold Change ([10]; treatment vs control): −9.8
Treatment (gene expression level) [11]: 5.9
Fold Change ([11]; treatment vs control): −6.1
Treatment (gene expression level) ([12]; IL24): 1.2
Fold Change ([12]; IL24, treatment vs control): −73.5
Treatment (gene expression level) ([13]; IL6): 1.2
Fold Change ([13]; IL6, treatment vs control): −19.7
Treatment (gene expression level) ([14]; KCTD4): 36.4
Fold Change ([14]; KCTD4, treatment vs control): −14.9
Treatment (gene expression level) ([15]; MKI67): 78.7
Fold Change ([15]; MKI67, treatment vs control): −10.6
Treatment (gene expression level) ([16]; MMP1): 972.9
Fold Change ([16]; MMP1, treatment vs control): −11.3
Treatment (gene expression level) ([17]; MMP10): 106.9
Fold Change ([17]; MMP10, treatment vs control): −24.3
Treatment (gene expression level) ([18]; MMP3): 8.2
Fold Change ([18]; MMP3, treatment vs control): −48.5
Treatment (gene expression level) ([19]; MMP9): 527.6
Fold Change ([19]; MMP9, treatment vs control): −8.6
Treatment (gene expression level) ([20]; PPFIA4): 628.6
Fold Change ([20]; PPFIA4, treatment vs control): 27.9
Treatment (gene expression level) ([21]; SLC13A5): 5.9
Fold Change ([21]; SLC13A5, treatment vs control): −13.9
Treatment (gene expression level) ([22]; TFPI2): 34.1
Fold Change ([22]; TFPI2, treatment vs control): −17.1
Treatment (gene expression level) ([23]; THBS1): 344.3
Fold Change ([23]; THBS1, treatment vs control): −16.0
Treatment (gene expression level) [24]: 0.0
Fold Change ([24]; treatment vs control): −256.0
Treatment (gene expression level) [25]: 37.6
Fold Change ([25]; treatment vs control): −18.4
Anti-inflammatory activity: inflammatory markers [26]: decrease inflammatory markers
Symptoms of atopic dermatitis [27]: alleviating symptoms of atopic dermatitis
Neuroinflammation and hypererythema [28]: reduces neuroinflammation and relieves hypererythema
Cognitive decline [29]: decreases cognitive decline
Melanogenesis [30]: decreases melanogenesis
Tyrosinase inhibition [31]: inhibiting tyrosinase
Protection from UVA-induced photodamage and apoptosis [32]: protecting skin from UVA-induced photodamage and apoptosis

Source: patent US20250049679A1, “FORMULATIONS OF ERIODICTYOL” (DEBUT BIOTECHNOLOGY, INC., priority 2023, published 2025)
